Measured values reported in US6150414A, “Compositions and methods for treating viral infections” (priority 1992, dated 2000).
Values joined by “and” are separate entries in the source; they are usually repeats but may differ in a detail not shown here. Equal values may be shown once.

Tests used:
[1] = biological target: T1, Radiation Leukemia Virus reverse transcriptase (Radiation murine leukemia virus, UniProt P11227); test: Radiation Leukemia Virus reverse transcriptase assay, supernatants from infected AQR cells (Examples 4 and 9); type: biochemical; details: Table VIII; for CPM: replicate
T1 construct: the reverse transcriptase of Radiation Leukemia Virus; endogenous in cells
How it was run: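 Supernatants from AQR cells chronically infected with RadLV were incubated 30 min on ice with the test compound (hypericin, protohypericin or HHA). Virus was pelleted at 100,000×g for 1 h at 4 °C, and the pellet was assayed for reverse transcriptase activity.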

Friend Virus = test: Friend Virus-induced splenomegaly, WIS compounds (Example 8); type: in vivo, mice; parameters: Actual Spleen Weight / Average Spleen Weight: unit not given here; details: Table VII; for Actual Spleen Weight: single animal
Protocol: (§1) The effects of compositions according to the present invention on the increase in spleen size (splenomegaly) of BALB/c mice (Jackson Labs, Bar Harbor, ME) was examined. In these experiments, the virus (10^6 focus forming units--FFU) was inoculated intravenously and 100 micrograms of the compounds indicated in Table II were administered to the mice intraperitoneally 24 hours later. Each compound was administered once to two mice. The animals were sacrificed ten days later and their spleens weighed.
(§2) As used in Table II (and subsequent Tables of this Example l(a) and (b), "average percent inhibition" is calculated as follows: [formula] wherein "ASWNC" designates "average spleen weight of negative control"; "ASWE" designates "average spleen weight of experimental (treated) subject"; and "ASWPC" designates "average spleen weight of positive control". Average spleen weight is the numerical average of spleen weights of each experimental group (in Table II each such group includes two members).
The AAB compounds whose synthesis is described above were assayed for antiviral activity. WIS-2, -3, -4, -5 and -6 were tested to determine their biological effects on Friend Virus-induced splenomegaly using the procedure and technique set forth in Example 1 above. The assay results (three mice per group were tested each at different concentrationss of the active composition except for the PBS-negative control wherein two animals per group were used) are reported in Table VII below.

retroviruses (virions) = test: Direct inactivation of retroviruses (virions) in vitro (Example 10); type: biochemical, Radiation Leukemia Virus; details: Table IX
How it was run: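 RadLV-containing supernatants from chronically infected B10.T(6R) cells incubated 30 min on ice with hypericin or protohypericin. Virions then pelleted at 100,000×g for 1 h at 4° C and assayed for reverse transcriptase activity. EC50 is the micromolar concentration inhibiting 50% of virus.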

Friend Leukemia Virus [2] = test: In vivo inhibition of Friend Leukemia Virus splenomegaly, intravenous 1-2 hours post infection (Example 10); parameters: species or system mice; details: Mus musculus, i.v. 1-2 hours post infection, Table IX, read-out: EC50 for FV-induced splenomegaly
Protocol: (§3) (3) In vivo inhibition of Friend Leukemia Virus Splenomegaly performed as described in Example 1 above except that the compounds were administered intravenously 1-2 hours post infection.
The results presented above in Table IX are presented as EC50 concentrations. These are the effective concentrations which inhibit 50% of the viruses in micromolar concentrations.

[3] = Stability to light and pH; type: physicochemical; details: neutral or acetic pH
retroviruses = test: Comparison over two in vitro and one in vivo biological assays (Example 10); details: Example 10, structural comparison
Protocol: In order to investigate the structural features of hypericin which are essential for antiretroviral activity, numerous analogs and precursors of hypericin were examined for activity in two in vitro and one in vivo biological assay.
(1) Direct inactivation of retroviruses in vitro, performed as in Example 3 above;
as §3

Friend Leukemia Virus [4] = test: FV-induced splenomegaly, PAC compounds in combination with AZT (Example 1(b)); type: in vivo, BALB/c mice; details: 5X AZT 20 micrograms per mouse
Protocol: as §1, §2
The compounds of the present invention (100 micrograms per mouse) were also tested in combination with AZT (20 micrograms per mouse, twice a day) using otherwise the same methods as in Example 1(a) above. As representatives, compound #9 above (3-bromophenanthro (3,4-C), phenanthrene) and compound #10 (diindeno (1, 2, 3-CD/1', 2', 3'-IM) Perylene) were chosen. […] The compounds were administered i.p. either once or five times (once per day) alone or together with AZT (20 micrograms of AZT per mouse twice a day for five days?). Thus, in experiments where AZT was administered five times, a total of […] of AZT was received by each mouse (with a total of 500 micrograms of the PAC compound).

HIV = details: human, in vivo; cited from earlier work

Compound: Cc1cc(O)c2cc3c(O)cc(O)c4c5c(O)cc(O)c6cc7c(O)cc(C)c8c1c2c(c34)c(c78)c65 [WIS-5, desoxyhypericin]
- Average CPM ([1]; 0.05 micrograms): 193,017 CPM
- CPM ([1]; 0.05 micrograms): 183,654 CPM and 202,380 CPM
- Average CPM ([1]; 0.1 micrograms): 171,635 CPM
- CPM ([1]; 0.1 micrograms): 172,984 CPM and 170,286 CPM
- Average CPM ([1]; 0.5 micrograms): 249,351 CPM
- CPM ([1]; 0.5 micrograms): 240,372 CPM and 258,330 CPM
- Average CPM ([1]; 1 microgram): 251,168 CPM
- CPM ([1]; 1 microgram): 238,782 CPM and 263,554 CPM
- Average CPM ([1]; 2 micrograms): 205,469 CPM
- CPM ([1]; 2 micrograms): 216,764 CPM and 194,174 CPM
- Average CPM ([1]; 5 micrograms): 236,878 CPM
- CPM ([1]; 5 micrograms): 220,588 CPM and 253,168 CPM
- Average CPM ([1]; 10 micrograms): 177,364 CPM
- CPM ([1]; 10 micrograms): 168,008 CPM and 186,720 CPM
- inhibition at 50 ng ([1]; 0.5 h, 0.05 micrograms): 76.4%
- inhibition at 0.0001 mg ([1]; 0.5 h, 0.1 micrograms): 79%
- inhibition at 0.0005 mg ([1]; 0.5 h, 0.5 micrograms): 69.5%
- inhibition at 0.001 mg ([1]; 0.5 h, 1 microgram): 69.2%
- inhibition at 0.002 mg ([1]; 0.5 h, 2 micrograms): 74.8%
- inhibition at 0.005 mg ([1]; 0.5 h, 5 micrograms): 71%
- inhibition at 0.01 mg ([1]; 0.5 h, 10 micrograms, read-out: Average % Inhibition): 78.3%
- Average % Inhibition (Friend Virus; 1 microgram): 5.9%
- Average Spleen Weight (Friend Virus; 1 microgram): 0.9197
- Actual Spleen Weight (Friend Virus; 1 microgram): 0.9062 and 0.9528 and 0.9001
- Average % Inhibition (Friend Virus; 10 micrograms): 6.5%
- Average Spleen Weight (Friend Virus; 10 micrograms): 0.9147
- Actual Spleen Weight (Friend Virus; 10 micrograms): 0.9126 and 0.8898 and 0.9417
- Average % Inhibition (Friend Virus; 50 micrograms): 19.3%
- Average Spleen Weight (Friend Virus; 50 micrograms): 0.8134
- Actual Spleen Weight (Friend Virus; 50 micrograms): 0.7817 and 0.8389 and 0.8196
- Average % Inhibition (Friend Virus; 150 micrograms): 35.2%
- Average Spleen Weight (Friend Virus; 150 micrograms): 0.6879
- Actual Spleen Weight (Friend Virus; 150 micrograms): 0.6919 and 0.6790 and 0.6927
- EC50 (retroviruses (virions)): > 21 µM
- EC50 (Friend Leukemia Virus [2]): > 316 µM
- stability vs pH [3]: decomposses readily in neutral or acetic pH
- loss of antiviral activity relative to parent (retroviruses): significant loss of in vivo reverse transcriptase inhibitory activity

Compound: Cc1cn([C@H]2C[C@H](N=[N+]=[N-])[C@@H](CO)O2)c(=O)[nH]c1=O [AZT, 3'-azido-3'-dideoxythymidine, reference compound]
- % Inhibition (Friend Leukemia Virus [4]): 39%
- Average Spleen Weight (Friend Leukemia Virus [4]): 1.3895
- Spleen weight (Friend Leukemia Virus [4]; single animal): 1.3744 and 1.4046
- clinical toxicity of AZT (HIV): dose-dependent suppression of bone marrow, resulting in anemia and leukopenia
